The text below walks through data of patent US4931471A, “Amides of paramethoxycinnamic and utilization thereof as solar filters” (priority 1985, dated 1990).

Series [1] in a line: UV spectrum (absorption maximum). The series is classed as physicochemical.
Series [2] can be described thus: Degradation in rat skin homogenate (TLC after 12 h). The format is in vitro ADME. Here is the method: The hypodermis was carefully detached by means of a razor blade. The remaining epidermis and dermis were cut into thin lamellae and placed in a conical flask containing 20 ml of phosphate buffer of pH 8. The lamellae were then ground in a Potter mill with large teeth so as to prevent the proteases from being released from the cell nuclei. The preparation obtained was centrifuged at 25,000 rpm and the supernatant was removed. 10 μmol of the test product were suspended in 4 ml of the homogenate. After 12 h, the solutions were analyzed by TLC.
When using rat skin homogenates such as those described above, no degradation of the amides according to Examples I and III to XI was observed, whereas the amide of Example II undergoes 30% degradation.

Series [3] deals with esterases in the skin and plasma. As to conditions: loss of UV-B filtering power on the skin; cited from earlier work.
For series [4] the following is noted: man; cited from earlier work.

`COc1ccc(C=CC(=O)N2CCCCC2)cc1` [Example I, N-(4-Methoxycinnamoyl)piperidine]: the “UV spectrum: maximum” value in series [1] (CHCl3) is 295 nm.

Turning to `COC(=O)[C@H](CCSC)NC(=O)C=Cc1ccc(OC)cc1` [Example II, Methyl ester of N-(4-methoxycinnamoyl)-L-methionine], the “UV spectrum: maximum” value in series [1] (CHCl3) is given as 309 nm. For the same compound, in series [2], the “degradation (in words)” value is “slightly degraded”. This compound had a metabolised at 12 h in series [2] (pH 8) of 30%. On to `COC(=O)[C@H](CSC)NC(=O)C=Cc1ccc(OC)cc1` [Example V, Methyl ester of S-methyl-N-(4-methoxycinnamoyl)-L-cysteine], for which the “UV spectrum: maximum” value in series [1] (CHCl3) was 306 nm. As to `COC(=O)[C@H](CSCc1ccccc1)NC(=O)C=Cc1ccc(OC)cc1` [Example VI, Methyl ester of S-benzyl-N-(4-methoxycinnamoyl)-L-cysteine], the “UV spectrum: maximum” value in series [1] (CHCl3) stood at 310 nm. With `COC(=O)[C@H](Cc1ccc(O)cc1)NC(=O)C=Cc1ccc(OC)cc1` [Example VII, Methyl ester of N-(4-methoxycinnamoyl)-L-tyrosine], the “UV spectrum: maximum” value in series [1] (CHCl3) is 312 nm. In the case of `COC(=O)C=Cc1cn(C(=O)C=Cc2ccc(OC)cc2)cn1` [Example VIII, Methyl ester of (4-methoxycinnamoyl)imidazol-4-ylprop-2-enoic acid (amide of paramethoxycinnamic acid and the methyl ester of urocanic acid)], the “UV spectrum: maximum” value in series [1] (100° ethanol) was determined as 350 nm.

As to `COC(=O)[C@H](CS)NC(=O)C=Cc1ccc(OC)cc1` [III, Methyl ester of N-(4-methoxycinnamoyl)-L-cysteine], in series [1] (CHCl3), the “UV spectrum: maximum” value came to 314 nm.

Turning to `COC(=O)[C@H](CSSC[C@H](NC(=O)C=Cc1ccc(OC)cc1)C(=O)OC)NC(=O)C=Cc1ccc(OC)cc1` [IV, Dimethyl ester of N,N'-di(4-methoxycinnamoyl)-L-cystine], the “UV spectrum: maximum” value in series [1] (CHCl3) was found to be 309 nm. Take `CCCCC(CC)COC(=O)C=Cc1ccc(OC)cc1` (stereo not drawn) [Ibis]: the “hydrolysis under the influence of the esterases in the skin and plasma” value in series [3] is “hydrolyzes to p-methoxycinnamic acid”. In the case of `O=C(C=Cc1c[nH]cn1)N1CCCCC1` [X, N-[3-(1H-Imidazol-4-yl)-1-oxoprop-2-enyl]piperidine], the “UV spectrum: maximum” value in series [1] (CHCl3) was found to be 285 nm. Regarding `COC(=O)/C=C/c1cn(C(=O)C=Cc2ccc(OC)cc2)cn1` [XI, Amide of paramethoxycinnamic acid and the methyl ester of trans-urocanic acid], in series [1] (in words), the “absorbing UV-A and UV-B radiation simultaneously” value was “capable of absorbing UV-A and UV-B radiation simultaneously”. As to `O=C(O)/C=C/c1c[nH]cn1` [urocanic acid], the “passage into the blood” value in series [4] is “passage into human blood”. Take “Amide of paramethoxycinnamic acid and the methyl ester of oxidized qlutathione [IX]”: in series [1] (CHCl3), the “UV spectrum: maximum” value was determined as 309 nm.
